Laboratory results taken from patent US20250332173A1, “COMPOUNDS AND METHODS FOR MODULATING NUCLEIC ACID SPLICING” (REMIX THERAPEUTICS INC., priority 2021, published 2025).
Where two headings read alike, the source gives them in different places.

How the values were obtained:
[1] = test system: HTT mRNA; experiment: RT-qPCR splicing assay, HTT canonical junction (CJ) and alternative junction (AJ) mRNA; assay type: cell-based, human; conditions: Homo sapiens; for AC50: increase in HTT alternative junction (AJ) mRNA, read-out: HTT AJ AC50
Procedure: (§1) The expression of a target mRNA was measured by detecting the formation of an exon-exon junction in the canonical transcript (CJ). A compound mediated exon-inclusion event was detected by observing an increase in formation of a new junction with an alternative exon (AJ). Real-time qPCR assays were used to detect these splicing switches and interrogate the potency of various compounds towards different target genes. A high-throughput real time quantitative PCR (RT-qPCR) assay was developed to measure these two isoforms of the mRNA (CJ and AJ) for exemplary genes, such as HTT, SMN2, and MYB, together with a control housekeeping gene, GAPDH or GUSB or PPIA, used for normalization. Briefly, the A673 or K562 cell line was treated with various compounds described herein (e.g., compounds of Formula (I)). After treatment, the levels of the HTT, MYB, or SMN2 mRNA targets were determined from each sample of cell lysate by cDNA synthesis followed by qPCR.
(§2) • Cells-to-CT 1-step kit: ThermoFisher A25602, Cells-to-CT lysis reagent: ThermoFisher 4391851C, TaqMan™ Fast Virus 1-Step Master Mix: ThermoFisher 4444436 • GAPDH: VIC-PL, ThermoFisher 4326317E (Assay: Hs99999905_m1)—used for K562/suspension cell lines • GUSB: VIC-PL, ThermoFisher 4326320E (Assay: Hs99999908_m1)—used for K562/suspension cell lines • PPIA: VIC-PL, ThermoFisher 4326316E (Assay: Hs99999904_m1)—used for A673/adherent cell lines
(§3) The A673 cell line was cultured in DMEM with 10% FBS. Cells were diluted with full growth media and plated in a 96-well plate (15,000 cells in 100 ul media per well). The plate was incubated at 37° C. with 5% CO2 for 24 hours to allow cells to adhere. An 11-point 3-fold serial dilution of the compounds was made in DMSO then diluted in media in an intermediate plate. Compounds were transferred from the intermediate plate to the cell plate with the top dose at a final concentration of 10 uM in the well. Final DMSO concentration was kept at or below 0.25%. The cell plate was returned to the incubator at 37° C. with 5% CO2 for an additional 24 hours.
(§4) The K562 cell line was cultured in IMDM with 10% FBS. For K562, cells were diluted with full growth media and plated in either a 96-well plate (50,000 cells in 50 uL media per well) or a 384-well plate (8,000-40,000 cells in 45 uL media per well). An 11-point 3-fold serial dilution of the compounds were made in DMSO then diluted in media in an intermediate plate. Compound was transferred from the intermediate plate to the cell plate with the top dose at a final concentration of 10 uM in the well. Final DMSO concentration was kept at or below 0.25%. Final volume was 100 uL for 96-well plate and 50 uL for 384-well plate. The cell plate was then placed in an incubator at 37° C. with 5% CO2 for 24 hours.
(§5) The cells were then gently washed with 50 uL-100 uL cold PBS before proceeding to addition of lysis buffer. 30 uL-50 uL of room temperature lysis buffer with DNAse I (and optionally RNAsin) was added to each well. Cells were shaken/mixed thoroughly at room temperature for 5-10 minutes for lysis to take place and then 3 uL-5 uL of room temperature stop solution was added and wells were shaken/mixed again. After 2-5 minutes, the cell lysate plate was transferred to ice for RT-qPCR reaction setup. The lysates could also be frozen at −80° C. for later use.
(§6) In some cases, a direct lysis buffer was used. An appropriate volume of 3× lysis buffer (10 mM Tris, 150 mM NaCl, 1.5%-2.5% Igepal and 0.1-1 U/uL RNAsin, pH 7.4) was directly added to either K562 or A673 cells in media and mixed by pipetting 3 times. The plates were then incubated at room temperature with shaking/rocking for 20-50 minutes to allow for lysis to take place. After this time, the cell lysate plate was transferred to ice to set up for the RT-qPCR reactions. The lysates could also be frozen at −80° C. for later use.

[2] = test system: Target C; experiment: RT-qPCR splicing assay panel, Target C canonical junction (CJ) mRNA; assay type: cell-based, human; conditions: Homo sapiens
Procedure: as §1, §3, §4, §5, §6
To set up 10 uL RT-qPCR reactions, cell lysates were transferred to 384-well qPCR plates containing the master mix according to the table below. The plates were sealed, gently vortexed, and spun down before the run. The volumes were adjusted accordingly in some instances where the reaction was carried in 20 uL. The table below summarizes the components of the RT-qPCR reactions:
The RT-qPCR reaction was performed using a QuantStudio (ThermoFisher) under the following fast cycling conditions.

[3] = test system: MYB mRNA; experiment: RT-qPCR splicing assay, MYB canonical junction (CJ) and alternative junction (AJ) mRNA; assay type: cell-based, human; conditions: Homo sapiens; for AC50: increase in MYB alternative junction (AJ) mRNA, read-out: MYB AJ AC50
Procedure: as §1, §2, §3, §4, §5, §6

[4] = test system: K562 (human chronic myelogenous leukemia) cells; experiment: Cell Titer Glo 2.0 cell viability assay; assay type: cell-based; conditions: Homo sapiens, K562, 72 h, K562 cells, 72 hours, Cell Titer Glo 2.0; read-out: K562 GI50
[5] = decrease in HTT canonical junction (CJ) mRNA, RT-qPCR, read-out: HTT CJ IC50
[6] = Table 5 panel, canonical junction qPCR, compound concentration having 50% response in CJ decrease, read-out: HTT IC50 (decrease in CJ mRNA levels)
[7] = Table 5 panel, canonical junction qPCR, compound concentration having 50% response in CJ decrease, read-out: Target C IC50 (decrease in CJ mRNA levels)
[8] = canonical junction qPCR panel, Table 5, read-out: HTT (decrease in CJ mRNA levels, IC50)
[9] = canonical junction qPCR panel, Table 5, read-out: MYB (decrease in CJ mRNA levels, IC50)
[10] = decrease in MYB canonical junction (CJ) mRNA, RT-qPCR, read-out: MYB CJ IC50
[11] = canonical junction qPCR panel, Table 5, read-out: Target C (decrease in CJ mRNA levels, IC50)

Structure (SMILES)	IC50 [1, 5]	AC50 ([1]; RT-qPCR)	IC50 [1, 6]	IC50 [2, 7]	IC50 [1, 8]	IC50 [3, 9]	IC50 [3, 10]	AC50 ([3]; RT-qPCR)	IC50 [2, 11]	GI50 [4]
Cc1cn2cc(-c3ccc4c(=O)n(C5CCNCC5)ncc4c3)nc2c(C)n1 [Compound 258]	> 10000 nM	1000 to 10000 nM								
Cc1cn2nc(-c3ccc4c(=O)n([C@H]5CCN[C@H](C)C5)ncc4c3)cc(C)c2n1 [Compound 273]	100 to 1000 nM	< 100 nM	< 100 nM	100 to 1000 nM						
Cc1cn2nc(-c3ccc4c(=O)n(C5CCOCC5)ncc4c3)cc(C)c2n1 [Compound 275]			> 10000 nM	> 10000 nM						
CC[C@@H]1C[C@@H](n2ncc3cc(-c4cc(C)c5nc(C)cn5n4)ccc3c2=O)CCN1 [Compound 305]	1000 to 10000 nM	100 to 1000 nM	100 to 1000 nM	100 to 1000 nM						
Cc1cn2nc(-c3ccc4c(=O)n([C@@H]5CCNC6(CC6)C5)ccc4n3)cc(C)c2n1 [Compound 1505, 6-[(7R)-4-azaspiro[2.5]octan-7-yl]-2-(2,8-dimethylimidazo[1,2-b]pyridazin-6-yl)-1,6-naphthyridin-5-one]	100 to 1000 nM	100 to 1000 nM			100 to 1000 nM	100 to 1000 nM	100 to 1000 nM	100 to 1000 nM	100 to 1000 nM	1000 to 10000 nM
Cc1cn2nc(-c3ccc4c(=O)n([C@H]5CCNC6(CC6)C5)ccc4n3)cc(C)c2n1 [Compound 1506, 6-[(7S)-4-azaspiro[2.5]octan-7-yl]-2-(2,8-dimethylimidazo[1,2-b]pyridazin-6-yl)-1,6-naphthyridin-5-one]	< 100 nM	< 100 nM			< 100 nM	100 to 1000 nM	< 100 nM	100 to 1000 nM	100 to 1000 nM	100 to 1000 nM
C[C@H]1C[C@@H](n2ccc3nc(-c4cc(F)c5nn(C)cc5c4)ccc3c2=O)CCN1 [Compound 1507]	100 to 1000 nM	100 to 1000 nM			100 to 1000 nM	100 to 1000 nM	100 to 1000 nM	100 to 1000 nM	1000 to 10000 nM	100 to 1000 nM
Cc1c(O)c(-c2ccc3c(=O)n([C@H]4CCNC5(CC5)C4)ccc3n2)cc2cn(C)nc12 [Compound 1508, 6-[(7S)-4-azaspiro[2.5]octan-7-yl]-2-(6-hydroxy-2,7-dimethyl-indazol-5-yl)-1,6-naphthyridin-5-one]	< 100 nM	< 100 nM			< 100 nM	< 100 nM	< 100 nM	< 100 nM	< 100 nM	< 100 nM
Cc1c(O)c(-c2ccc3c(=O)n([C@@H]4CCNC5(CC5)C4)ccc3n2)cc2cn(C)nc12 [Compound 1509, 6-[(7R)-4-azaspiro[2.5]octan-7-yl]-2-(6-hydroxy-2,7-dimethyl-indazol-5-yl)-1,6-naphthyridin-5-one]	100 to 1000 nM	100 to 1000 nM			100 to 1000 nM	< 100 nM	100 to 1000 nM	< 100 nM	100 to 1000 nM	100 to 1000 nM
Cc1cn2cc(-c3ccc4c(=O)n([C@@H]5CCNC6(CC6)C5)ccc4n3)cc(F)c2n1 [Compound 1510]	1000 to 10000 nM	100 to 1000 nM			100 to 1000 nM	100 to 1000 nM	1000 to 10000 nM	100 to 1000 nM	1000 to 10000 nM	100 to 1000 nM
Cc1cn2cc(-c3ccc4c(=O)n([C@H]5CCNC6(CC6)C5)ccc4n3)cc(F)c2n1 [Compound 1511]	100 to 1000 nM	100 to 1000 nM			100 to 1000 nM	100 to 1000 nM	100 to 1000 nM	100 to 1000 nM	100 to 1000 nM	100 to 1000 nM
Cc1c(O)c(-c2ncc3c(=O)n([C@@H]4CCNC5(CC5)C4)ccc3n2)cc2cn(C)nc12 [Compound 1513]	1000 to 10000 nM	100 to 1000 nM			100 to 1000 nM	100 to 1000 nM	100 to 1000 nM	100 to 1000 nM	1000 to 10000 nM	100 to 1000 nM
Cc1c(O)c(-c2nc(C)c3c(=O)n([C@H]4CCNC5(CC5)C4)ccc3n2)cc2cn(C)nc12 [Compound 1514, 6-[(7S)-4-azaspiro[2.5]octan-7-yl]-2-(6-hydroxy-2,7-dimethyl-indazol-5-yl)-4-methyl-pyrido[4,3-d]pyrimidin-5-one]	1000 to 10000 nM	> 10000 nM			> 10000 nM	100 to 1000 nM	100 to 1000 nM	100 to 1000 nM	1000 to 10000 nM	100 to 1000 nM
Cc1c(O)c(-c2nc(C)c3c(=O)n(C4C[C@H](C)N[C@@H](C)C4)ccc3n2)cc2cn(C)nc12 (some centres unmarked) [Compound 1516]	1000 to 10000 nM	1000 to 10000 nM			1000 to 10000 nM	100 to 1000 nM	100 to 1000 nM	100 to 1000 nM	> 10000 nM	100 to 1000 nM
